Experimental data: ChEMBL document CHEMBL1641404 (Bioorg Med Chem Lett, 2011)

Legend:
Assay type in all cases: ADME, organism-based
[1] = AUC (0 to t) in CD-1 mouse 10 mg/kg, po; design: dose 10 mg/kg, route oral; conditions: plasma
[2] = Tmax in CD-1 mouse 10 mg/kg, po; design: dose 10 mg/kg, route oral; conditions: in vivo
[3] = Half life in CD-1 mouse 1 mg/kg, iv; design: dose 1 mg/kg, route intravenous; conditions: in vivo
[4] = Plasma concentration in mouse bearing ALK-positive tumor xenografts at 30 mg/kg, po up to 12 hrs; design: dose 30 mg/kg, route oral
[5] = Clearance in Sprague-Dawley rat 1 mg/kg, iv; design: dose 1 mg/kg, route intravenous; conditions: in vivo
Rattus norvegicus = assay: Cmax in Sprague-Dawley rat 5 mg/kg, po; design: dose 5 mg/kg, route oral; conditions: in vivo
[6] = AUC (0 to t) in Sprague-Dawley rat 1 mg/kg, iv; design: dose 1 mg/kg, route intravenous; conditions: plasma
[7] = AUC (0 to t) in CD-1 mouse 1 mg/kg, iv; design: dose 1 mg/kg, route intravenous; conditions: plasma
[8] = Oral bioavailability in CD-1 mouse 10 mg/kg; conditions: in vivo
[9] = AUC (0 to t) in Sprague-Dawley rat 5 mg/kg, po; design: dose 5 mg/kg, route oral; conditions: plasma
[10] = Volume of distribution in CD-1 mouse 1 mg/kg, iv; design: dose 1 mg/kg, route intravenous; conditions: in vivo
[11] = Clearance in CD-1 mouse 1 mg/kg, iv; design: dose 1 mg/kg, route intravenous; conditions: in vivo
[12] = Half life in Sprague-Dawley rat 1 mg/kg, iv; design: dose 1 mg/kg, route intravenous; conditions: in vivo
[13] = Half life in CD-1 mouse 10 mg/kg, po; design: dose 10 mg/kg, route oral; conditions: in vivo
[14] = Volume of distribution in Sprague-Dawley rat 1 mg/kg, iv; design: dose 1 mg/kg, route intravenous; conditions: in vivo
[15] = Tmax in Sprague-Dawley rat 5 mg/kg, po; design: dose 5 mg/kg, route oral; conditions: in vivo
Mus musculus = assay: Cmax in CD-1 mouse 10 mg/kg, po; design: dose 10 mg/kg, route oral; conditions: in vivo
[16] = Oral bioavailability in Sprague-Dawley rat 5 mg/kg; conditions: in vivo

Compound: COc1cc2c(cc1Nc1ncc(Cl)c(Nc3ccc(N4CCOCC4)cc3OC)n1)CCN(CC(=O)N(C)C)CC2
- AUC(0-t) [1]: 3900 ng·h/mL
- Tmax [2]: 30 min
- half-life [3]: 42 min
- concentration at 12 h [4]: 3000 nM
- clearance [5]: 16 mL/min/kg
- Cmax (Rattus norvegicus): 306 ng/mL
- AUC(0-t) [6]: 1020 ng·h/mL
- AUC(0-t) [7]: 830 ng·h/mL
- bioavailability [8]: 64%
- AUC(0-t) [9]: 1400 ng·h/mL
- Vd [10]: 1.2 L/kg
- clearance [11]: 20 mL/min/kg
- half-life [12]: 48 min
- half-life [13]: 186 min
- Vd [14]: 1.1 L/kg
- Tmax [15]: 198 min
- Cmax (Mus musculus): 1190 ng/mL
- bioavailability [16]: 30%
